Values after ≈ are worked out from the molar mass of the structure shown.
Legend:
Assay type in all cases: physicochemical
[1] = solubility of crystalline forms in organic solvents
From the text: Forms A and B have similar solubilities.

[2] = hygroscopicity of the anhydrous polymorphs; conditions: Form A compared with Form B
From the text: (§1) In some embodiments, removal of the solvent molecule(s) from selpercatinib in solvated form can provide for selpercatinib Form A.

[3] = solid-form stability (thermodynamic stability, form conversion on storage, isolation and drying)
From the text: as §1
As noted above, selpercatinib can form solvates; and it can also form metastable solid forms, both of which are generally not stable on drying. […] The solvates and metastable forms usually revert to Form A during isolation and/or drying, although films or amorphous material occasionally form. The chloroform and 1,4-dioxane solvates were stable upon isolation/drying. Thus, one strategy for preparing selpercatinib Form A is to convert amorphous selpercatinib and/or selpercatinib Form B into a solvate and then desolvating the solvate, to afford Form A.
In one preferred embodiment, the Form A material is washed with MTBE or heptane and then dried under vacuum at a temperature of about 40 to about 45° C.
The formation of the solvate appears to remove any dependence on, or effect from, the seed crystal form.

Compound	solubility in many organic solvents ([1]; 25° C., methyl ethyl ketone (MEK), acetone, many alcohol based solvents)	solubility ([1]; organic solvents: dichloromethane, dimethylsulfoxide, organic solvent or mixture, moderate solubility, 25° C., DCM, DMSO, THF) [mg/mL]	hygroscopicity [2]	thermodynamic stability ([3]; Form A compared with Form B)	interconversion of polymorphs ([3]; typical storage or preparative conditions)	form conversion on drying of wet cake ([3]; wet cake dried at 45° C., ambient pressure, over several days)	solubility in anisole ([1]; anisole)
COc1ccc(CN2C3CC2CN(c2ccc(-c4cc(OCC(C)(C)O)cn5ncc(C#N)c45)cn2)C3)cn1 [Form A, 6-(2-hydroxy-2-methylpropoxy)-4-(6-(6-((6-methoxypyridin-3-yl)methyl)-3,6-diazabicyclo[3.1.1]heptan-3-yl)pyridin-3-yl)pyrazolo[1,5-a]pyridine-3-carbonitrile]	poor	3 to 30 (≈ 5.71 to 57.1 mM)	slightly more hygroscopic	thermodynamically less stable	do not readily inter-convert	slowly converted the Form A to Form B	
COc1ccc(CN2C3CC2CN(c2ccc(-c4cc(OCC(C)(C)O)cn5ncc(C#N)c45)cn2)C3)cn1 [Form B, 6-(2-hydroxy-2-methylpropoxy)-4-(6-(6-((6-methoxypyridin-3-yl)methyl)-3,6-diazabicyclo[3.1.1]heptan-3-yl)pyridin-3-yl)pyrazolo[1,5-a]pyridine-3-carbonitrile]							almost no solubility

From patent US20230183266A1, “CRYSTALLINE FORMS OF RET INHIBITOR AND PREPARATION THEREOF” (LOXO ONCOLOGY, INC., priority 2021, published 2023)
